Assay [1] relates to Bacillus subtilis. Kind of assay: Antibacterial activity against Bacillus subtilis MTCC 441 after 24 hrs by modified agar well diffusion method. The format is functional. The note with it: MTCC 441, 24 h. A general note: In agar diffusion tests the substance spreads into inoculated agar from a disc or well.
Assay [2] concerns Aspergillus flavus. Briefly: Antifungal activity against Aspergillus flavus MTCC 277 after 2 to 3 days by modified agar well diffusion method. The format is functional.
Assay [3] has as its system Salmonella typhimurium. Kind of assay: Antibacterial activity against Salmonella typhimurium MTCC 98 after 24 hrs by modified agar well diffusion method. The format is functional, Salmonella enterica subsp. enterica serovar Typhimurium. The note with it: Salmonella enterica, MTCC 98, 24 h.
In assay [4] the test system is THP-1. Briefly: Antiinflammatory activity in human PMA-activated THP1 cells assessed as inhibition of LPS-induced IL6 production at 10 uM incubated for 30 mins prior to LPS-challenge measured after 24 hrs by ELISA relative to control. Type of assay: functional. Background: ELISA stands for enzyme-linked immunosorbent assay.
Assay [5] concerns Fusarium solani. Briefly: Antifungal activity against Fusarium solani MTCC 350 after 2 to 3 days by modified agar well diffusion method. The format is functional.
Assay [6] has as its system Aspergillus niger. Briefly: Antifungal activity against Aspergillus niger MTCC 281 after 2 to 3 days by modified agar well diffusion method. The format is functional.
The test system of assay [7] is THP-1. Kind of assay: Antiinflammatory activity in human PMA-activated THP1 cells assessed as inhibition of LPS-induced TNFalpha production at 10 uM incubated for 30 mins prior to LPS-challenge measured after 24 hrs by ELISA relative to control. The format is functional.
The test system of assay [8] is Escherichia coli. Kind of assay: Antibacterial activity against Escherichia coli MTCC 443 after 24 hrs by modified agar well diffusion method. Type of assay: functional. The conditions noted are these: MTCC 443, 24 h.
Assay [9] relates to Candida albicans. Briefly: Antifungal activity against Candida albicans MTCC 227 after 2 to 3 days by modified agar well diffusion method. Type of assay: functional.
In assay [10] the test system is Staphylococcus aureus. Kind of assay: Antibacterial activity against Staphylococcus aureus MTCC 96 after 24 hrs by modified agar well diffusion method. Type of assay: functional. The conditions noted are these: MTCC 96, 24 h.
Assay [11] concerns Fusarium solani. Briefly: Ratio of miconazole MIC to compound MIC for Fusarium solani MTCC 350. The format is functional.
The test system of assay [12] is Staphylococcus aureus. Briefly: Ratio of ciprofloxacin MIC to compound MIC for Staphylococcus aureus MTCC 96. Type of assay: functional.
The subject of assay [13] is Candida albicans. Kind of assay: Ratio of miconazole MIC to compound MIC for Candida albicans MTCC 227. The format is functional.
Assay [14] has as its system Escherichia coli. Briefly: Ratio of ciprofloxacin MIC to compound MIC for Escherichia coli MTCC 443. The format is functional.
The subject of assay [15] is Aspergillus flavus. Briefly: Ratio of miconazole MIC to compound MIC for Aspergillus flavus MTCC 277. Type of assay: functional.
Assay [16] concerns Salmonella typhimurium. Briefly: Ratio of ciprofloxacin MIC to compound MIC for Salmonella typhimurium MTCC 98. Type of assay: functional, Salmonella enterica subsp. enterica serovar Typhimurium.
The subject of assay [17] is Bacillus subtilis. Kind of assay: Ratio of ciprofloxacin MIC to compound MIC for Bacillus subtilis MTCC 441. The format is functional.
In assay [18] the test system is Aspergillus niger. Briefly: Ratio of miconazole MIC to compound MIC for Aspergillus niger MTCC 281. Type of assay: functional.

Among the data in ChEMBL document CHEMBL2150945, “Synthesis and biological evaluation of novel piperazine derivatives of flavone as potent anti-inflammatory and antimicrobial agent” (2012) are MIC, inhibition and Ratio values, retold here.

Converted amounts (≈) assume the structure as drawn.

With `COc1ccc2oc(N3CCN(c4ccccc4)CC3)cc(=O)c2c1`, the minimum inhibitory concentration (MIC) – broadly, the lowest concentration that inhibits growth of the organism – in the assay on Bacillus subtilis [1] was 50 µg/mL (≈ 149 µM); against Aspergillus flavus [2], 95 µg/mL (≈ 282 µM); against Salmonella typhimurium [3], 80 µg/mL (≈ 238 µM); in the assay with Fusarium solani [5], 80 µg/mL (≈ 238 µM); against Aspergillus niger [6], 85 µg/mL (≈ 253 µM); with Escherichia coli [8] it was 80 µg/mL (≈ 238 µM). Also, the figures for the MIC in the assay on Candida albicans [9] and against Staphylococcus aureus [10] were 90 µg/mL (≈ 268 µM) and 75 µg/mL (≈ 223 µM), respectively. In addition, the inhibition – broadly, the relative decrease from the control value, in per cent – at 10 µM in the assay on THP-1 [4] was determined as 60%; with THP-1 [7], 45%.
As for `COc1ccc2oc(N3CCN(c4ccccc4)CC3C#N)cc(=O)c2c1` (configuration not stated), the Ratio in the assay with Fusarium solani [11], with Staphylococcus aureus [12], in the assay with Candida albicans [13], in the assay on Escherichia coli [14], in the assay with Aspergillus flavus [15] and with Salmonella typhimurium [16] was 2 each time. For the same compound, the Ratio in the assay with Bacillus subtilis [17] and in the assay on Aspergillus niger [18] was 2 throughout. Further, the minimum inhibitory concentration (MIC) in the assay on Bacillus subtilis [1] was 30 µg/mL (≈ 83 µM); in the assay on Aspergillus flavus [2], 30 µg/mL (≈ 83 µM); in the assay with Salmonella typhimurium [3] it was 50 µg/mL (≈ 138 µM); in the assay with Fusarium solani [5] it was 15 µg/mL (≈ 41.5 µM); in the assay with Aspergillus niger [6], 10 µg/mL (≈ 27.7 µM); against Escherichia coli [8], 45 µg/mL (≈ 125 µM). The MIC in the assay on Candida albicans [9] is 15 µg/mL (≈ 41.5 µM); against Staphylococcus aureus [10], 40 µg/mL (≈ 111 µM). Besides, the inhibition at 10 µM in the assay on THP-1 [4] was 0%; in the assay with THP-1 [7], 10%.
With `COc1ccc2oc(N3CCN(c4ncccn4)CC3)cc(=O)c2c1`, the MIC worked out at 65 µg/mL (≈ 192 µM) with Bacillus subtilis [1]; 85 µg/mL (≈ 251 µM) in the assay with Aspergillus flavus [2]; 80 µg/mL (≈ 236 µM) against Salmonella typhimurium [3]; 95 µg/mL (≈ 281 µM) against Fusarium solani [5]; 70 µg/mL (≈ 207 µM) against Aspergillus niger [6]; 80 µg/mL (≈ 236 µM) in the assay on Escherichia coli [8]. For the same compound, the MIC in the assay on Candida albicans [9] was determined as 85 µg/mL (≈ 251 µM); in the assay with Staphylococcus aureus [10] it was 80 µg/mL (≈ 236 µM). In addition, the inhibition at 10 µM in the assay with THP-1 [4] is 87%; in the assay on THP-1 [7] it was 82%.
For the compound `COc1ccc2oc(N3CCN(Cc4ccccc4)CC3)cc(=O)c2c1`, the MIC is 55 µg/mL (≈ 157 µM) in the assay on Bacillus subtilis [1]; 65 µg/mL (≈ 185 µM) in the assay with Aspergillus flavus [2]; 65 µg/mL (≈ 185 µM) against Salmonella typhimurium [3]; 45 µg/mL (≈ 128 µM) against Fusarium solani [5]; 30 µg/mL (≈ 85.6 µM) against Aspergillus niger [6]; 65 µg/mL (≈ 185 µM) in the assay with Escherichia coli [8]. For the same compound, the minimal inhibitory concentration (MIC) with Candida albicans [9] was determined as 55 µg/mL (≈ 157 µM); with Staphylococcus aureus [10], 70 µg/mL (≈ 200 µM). Besides, the inhibition at 10 µM in the assay on THP-1 [4] and in the assay on THP-1 [7] was 0% each time.
Consider `CCN1CCN(c2cc(=O)c3cc(OC)ccc3o2)CC1`, for which the MIC against Bacillus subtilis [1] is 80 µg/mL (≈ 277 µM); in the assay on Aspergillus flavus [2], 70 µg/mL (≈ 243 µM); with Fusarium solani [5], 70 µg/mL (≈ 243 µM); in the assay with Aspergillus niger [6] it was 60 µg/mL (≈ 208 µM); against Candida albicans [9] it was 75 µg/mL (≈ 260 µM); in the assay with Staphylococcus aureus [10] it was 90 µg/mL (≈ 312 µM). Besides, the inhibition at 10 µM came out at 40% in the assay on THP-1 [4] and 30% in the assay on THP-1 [7].
Take `COc1ccc2oc(N3CCN(C)CC3)cc(=O)c2c1`: the MIC amounted to 45 µg/mL (≈ 164 µM) against Bacillus subtilis [1]; 65 µg/mL (≈ 237 µM) against Salmonella typhimurium [3]; 90 µg/mL (≈ 328 µM) with Aspergillus niger [6]; 40 µg/mL (≈ 146 µM) in the assay on Escherichia coli [8]; 90 µg/mL (≈ 328 µM) in the assay on Candida albicans [9]; 50 µg/mL (≈ 182 µM) in the assay on Staphylococcus aureus [10]. In addition, the inhibition at 10 µM in the assay on THP-1 [4] was found to be 35%; in the assay on THP-1 [7] it was 25%.
As for `COc1ccc(N2CCN(c3cc(=O)c4cc(OC)ccc4o3)CC2)cc1`, the MIC against Bacillus subtilis [1] amounted to 45 µg/mL (≈ 123 µM); in the assay with Aspergillus flavus [2], 90 µg/mL (≈ 246 µM); against Salmonella typhimurium [3] it was 80 µg/mL (≈ 218 µM); against Fusarium solani [5], 85 µg/mL (≈ 232 µM); in the assay on Aspergillus niger [6], 75 µg/mL (≈ 205 µM); in the assay on Escherichia coli [8] it was 75 µg/mL (≈ 205 µM). Besides, the MIC in the assay with Candida albicans [9] turned out to be 95 µg/mL (≈ 259 µM); against Staphylococcus aureus [10] it was 60 µg/mL (≈ 164 µM). Moreover, the inhibition at 10 µM with THP-1 [4] is 83%; in the assay with THP-1 [7] it was 79%.
Turning to `COc1ccc2oc(NCCN3CCCC3)cc(=O)c2c1`, the Ratio in the assay on Fusarium solani [11], with Staphylococcus aureus [12], in the assay on Candida albicans [13], in the assay on Escherichia coli [14], with Aspergillus flavus [15] and in the assay with Salmonella typhimurium [16] was 2 in each case. The Ratio with Bacillus subtilis [17] and in the assay with Aspergillus niger [18] was 2 each time. For the same compound, the MIC in the assay on Bacillus subtilis [1] stood at 10 µg/mL (≈ 34.7 µM); against Aspergillus flavus [2], 15 µg/mL (≈ 52 µM); in the assay on Salmonella typhimurium [3], 10 µg/mL (≈ 34.7 µM); in the assay with Fusarium solani [5], 10 µg/mL (≈ 34.7 µM); against Aspergillus niger [6], 10 µg/mL (≈ 34.7 µM); in the assay on Escherichia coli [8], 15 µg/mL (≈ 52 µM). The MIC stood at 10 µg/mL (≈ 34.7 µM) against Candida albicans [9] and 20 µg/mL (≈ 69.4 µM) against Staphylococcus aureus [10]. Besides, the inhibition at 10 µM is 20% in the assay with THP-1 [4] and 5% in the assay on THP-1 [7].
Regarding `COc1cc(OC)c2c(=O)cc(CN3CCN(c4ccccc4)CC3)oc2c1`, the MIC in the assay on Bacillus subtilis [1] is 90 µg/mL (≈ 237 µM); in the assay on Aspergillus flavus [2] it was 85 µg/mL (≈ 223 µM); in the assay on Salmonella typhimurium [3], 90 µg/mL (≈ 237 µM); with Fusarium solani [5], 95 µg/mL (≈ 250 µM); against Aspergillus niger [6], 90 µg/mL (≈ 237 µM); in the assay with Escherichia coli [8] it was 90 µg/mL (≈ 237 µM). The MIC with Candida albicans [9] came out at 80 µg/mL (≈ 210 µM); against Staphylococcus aureus [10], 90 µg/mL (≈ 237 µM). For the same compound, the values for the inhibition at 10 µM in the assay on THP-1 [4] and with THP-1 [7] were 50% and 45%, respectively.
Turning to `COc1ccc(N2CCN(Cc3cc(=O)c4c(OC)cc(OC)cc4o3)CC2)cc1`, the MIC against Bacillus subtilis [1] was 40 µg/mL (≈ 97.4 µM); in the assay on Aspergillus flavus [2] it was 85 µg/mL (≈ 207 µM); in the assay on Salmonella typhimurium [3], 65 µg/mL (≈ 158 µM); in the assay on Fusarium solani [5], 75 µg/mL (≈ 183 µM); against Aspergillus niger [6], 80 µg/mL (≈ 195 µM); with Escherichia coli [8], 70 µg/mL (≈ 171 µM). In addition, the minimum inhibitory concentration (MIC) in the assay on Candida albicans [9] is 95 µg/mL (≈ 231 µM); against Staphylococcus aureus [10], 65 µg/mL (≈ 158 µM). The inhibition at 10 µM is 93% in the assay on THP-1 [4] and 85% in the assay on THP-1 [7].
